Experimental data from US9624255B2, “Carbohydrate-mediated tumor targeting” (Arizona Board of Regents, priority 2009, dated 2017).

Columns and labels:
[1] = test system: A-549 lung carcinoma cells; assay: Visualization of cell association of fluorescent-disaccharide probe (fluorescence microscopy); format: cell-based; conditions: 1 fM, five minutes at 37° C.; A-549 compared with CCL-75 normal lung fibroblasts; FIG. 5
Experimental: In this case, we tethered a non-fluorescent pro-fluorophore, 5(6)-carboxyfluorescein diacetate (CFSE) onto the disaccharide of bleomycin to create a BLM-sugar probe. This fluorophore should only fluoresce when acted upon by the cell, where intracellular esterases cleave the acetate groups allowing for detectable fluorescence.
Both A-549 lung carcinoma cells and CCL-75 normal lung fibroblasts were seeded on 35 mm glass cover slips at a density of 2.5×10^5 cells before incubating 48 hours to allow attachment and growth. A total effective concentration of 1 fM of the fluorescent-sugar derivative (34) and 5(6)-carboxyfluorescein diacetate N-succinimidyl ester (CFSE) compounds were added to cover slips of each cell type before incubation for five minutes at 37° C. To prepare slides for microscopy viewing, cover slips were washed in PBS and 70% ethanol solution before fixation in Histochoice MB Fixative (Electron Microscopy Sciences, Hatfield, Pa.) for 15 minutes. Fixed cover slips were mounted onto glass slides for viewing. Using the Zeiss Axiovert 200M inverted microscope (Apotome camera), fluorescent images were acquired using DIC (at 35 ms exposure time) and appropriate fluorescence filter at 470-490 nm excitation (761 ms exposure time), 40× objective magnification.

[2] = test system: MCF-7 (Breast carcinoma); assay: Microbubble attachment to cultured cells (flow chamber, inverted microscopy); format: cell-based
Experimental: To create BLM A5- and deglyco BLM A5-microbubbles, the synthesized biotinylated compounds (1, 2 and 32) were conjugated to Targestar^B Targeted Ultrasound Contrast Agents (Targeson). For each of these preparations, 400 μL of Coupling Reagent (Targeson) was added to 1.5 mL of conjugated Targestar^B microbubbles and incubated for 20 min at room temperature, with gentle agitation every 5 min. The resulting product was divided into two syringes, each rinsed with 1.75 mL of Infusion Buffer, and then centrifuged for 3 min (400×g, 10° C.). The infranatant was then drained to 1 mL. For each separate preparation, […] containing 50 nM of the biotinylated compound was added to one of the vials and both were incubated at room temperature for 20 min with gentle agitation every 5 min. To each sample was added 1.75 mL of Infusion Buffer before centrifugation for 3 min at 400×g (10° C.). This solution was then drained to 1.0 mL before recovery of the supernatant and repetition of the previous step. Finally, the supernatant was resuspended in Infusion Buffer to a final volume of 2.0 mL.
Attachment of the (biotinylated BLM A5-, biotinylated deglyco BLM A5-, and biotinylated BLM A5 disaccharide-conjugated) microbubbles to the cultured cancer cells was imaged using an inverted microscope Zeiss Axiovert 200M fitted with an AxioCam MRm camera. […]

Molecule | Fluorescence of cells after exposure to compound [1] | Microbubble attachment to MCF-7 cells (in words) ([2]; MCF-7 breast carcinoma cells, compound conjugated to microbubble, FIG. 3/4) | Preferential attachment, tumor over normal cells ([2]; MCF-7 versus MCF-10A, conjugated onto the microbubble, FIG. 4a)
5(6)-carboxyfluorescein diacetate N-succinimidyl ester [CFSE, reference compound] | lack of marked fluorescence |  | 
CC(=O)Oc1ccc2c(c1)Oc1cc(OC(C)=O)ccc1C21OC(=O)c2cc(C(=O)NCCOCCO[C@@H]3O[C@@H](CO)[C@@H](O)[C@H](O)[C@@H]3O[C@H]3O[C@H](CO)[C@@H](O)[C@H](OC(N)=O)[C@@H]3O)ccc21 [Compound 34, (4,5)-(2-(2-((2R,3S,4S,5S,6S)-3-((2R,3S,4S,5R,6R)-4-(Carbamoyloxy)-3,5-dihydroxy-6-(hydroxymethyl)tetrahydro-2H-pyran-2-yloxy)-4,5-dihydroxy-6-(hydroxymethyl)tetrahydro-2H-pyran-2-yloxy)ethoxy)ethylcarbamoyl)-3-oxo-3H-spiro[isobenzofuran-1,9′-xanthene]-3′,6′-diyl Diacetate] | highest fluorescence only in the tumor cell line |  | 
NC(=O)O[C@@H]1[C@H](O)[C@@H](O[C@@H]2[C@H](OCCOCCNC(=O)CCCC[C@@H]3SC[C@@H]4NC(=O)N[C@@H]43)O[C@@H](CO)[C@@H](O)[C@@H]2O)O[C@H](CO)[C@H]1O [Compound 32, (2R,3S,4S,5R,6R)-2-((2R,3S,4S,5S,6S)-4,5-dihydroxy-6-(hydroxymethyl)-2-(2-(2-(5-((3aS,4S,6aR)-2-oxohexahydro-1H-thieno[3,4-d]imidazol-4-yl)pentanamido)ethoxy)ethoxy)tetrahydro-2H-pyran-3-yloxy)-3,5-dihydroxy-6-(hydroxymethyl)tetrahydro-2H-pyran-4-yl Carbamate] |  | greater attachment than biotinylated bleomycin A5 | preferential attachment to MCF-7 tumor cells over MCF-10A cells
